The text below walks through data of PubChem BioAssay (NCI).

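Where inhibition never reached the appropriate level, the endpoint shown equals the highest concentration tested. Otherwise, values were interpolated linearly from a five-concentration, 48-hour dose response in 96-well plates. GI50 is the concentration that inhibits growth by half. The concentration for full growth arrest is given as TGI.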

The term GI50 denotes the concentration giving 50% growth inhibition. What is called TGI is the concentration at which net growth stops.

Among the test systems are HOP-62 NSCLC; K-562 leukemia; MALME-3M melanoma; NCI-H226 lung; NCI-H23 lung; NCI-H460 lung; OVCAR-5 ovarian; SNB-75 CNS; U251 CNS; UACC-62 melanoma.
What all share (test): DTP human tumour cell line panel, 48 h

Consider `O=C(Nc1n[nH]c2nc(-c3ccco3)c(Br)cc12)C1CC1`, for which the GI50 with HOP-62 NSCLC, in the test on K-562 leukemia, in the test on MALME-3M melanoma, in the test on NCI-H226 lung, in the test with NCI-H23 lung and in the test on NCI-H460 lung was > 25 µM throughout. In addition, the GI50 is > 25 µM in the test with OVCAR-5 ovarian, > 9.08 µM in the test with SNB-75 CNS, > 25 µM in the test with U251 CNS and > 25 µM with UACC-62 melanoma. Moreover, the TGI in the test on HOP-62 NSCLC, with K-562 leukemia, with MALME-3M melanoma, in the test on NCI-H226 lung, in the test on NCI-H23 lung and in the test on NCI-H460 lung was > 25 µM in each case. Also, the TGI in the test on OVCAR-5 ovarian, in the test with SNB-75 CNS, in the test on U251 CNS and with UACC-62 melanoma was > 25 µM each time.
For the compound `O=C1C2=C(c3ccccc31)C(c1cccc(Cl)c1)NC(=S)N2` (stereo not given), the TGI in the test on HOP-62 NSCLC, in the test with K-562 leukemia, in the test with MALME-3M melanoma, in the test on NCI-H226 lung, in the test with NCI-H23 lung and with NCI-H460 lung was > 100 µM each time. Moreover, the TGI in the test with OVCAR-5 ovarian, with SNB-75 CNS, with U251 CNS and in the test on UACC-62 melanoma was > 100 µM in each case.
Take `COc1ccc(/C(=C/c2cc(OC)c(OC)c(OC)c2)[N+](=O)[O-])cc1`: the GI50 is 2.64 µM in the test with HOP-62 NSCLC; 1.71 µM with K-562 leukemia; 1.68 µM with MALME-3M melanoma; 2.29 µM with NCI-H226 lung; 2.02 µM in the test with NCI-H23 lung; 2.24 µM with NCI-H460 lung. The GI50 in the test on OVCAR-5 ovarian is 2.01 µM; in the test on SNB-75 CNS, 2.02 µM; in the test on U251 CNS, 1.58 µM; in the test on UACC-62 melanoma it was 1.56 µM. For the same compound, the TGI was 5.93 µM in the test with HOP-62 NSCLC; > 100 µM in the test with K-562 leukemia; 3.71 µM in the test with MALME-3M melanoma; 5.78 µM with NCI-H226 lung; 4.64 µM with NCI-H23 lung; 5.23 µM in the test on NCI-H460 lung. Moreover, the TGI was 4.09 µM in the test with OVCAR-5 ovarian, 6.3 µM with SNB-75 CNS, 3.05 µM in the test with U251 CNS and 3.07 µM in the test with UACC-62 melanoma.
As to `OB([O][Hg][c]1ccccc1)[O][Hg][c]1ccccc1`, the GI50 with HOP-62 NSCLC is 1.04 µM; in the test with K-562 leukemia, 0.234 µM; in the test on MALME-3M melanoma, 0.244 µM; in the test on NCI-H226 lung, 1.52 µM; in the test with NCI-H23 lung it was 0.784 µM; with NCI-H460 lung, 0.589 µM. Moreover, the GI50 in the test with OVCAR-5 ovarian was 1.88 µM; with SNB-75 CNS it was 0.291 µM; in the test with U251 CNS, 0.507 µM; in the test with UACC-62 melanoma it was 0.454 µM. Moreover, the TGI in the test on HOP-62 NSCLC worked out at 3.39 µM; in the test with K-562 leukemia, 4.96 µM; with MALME-3M melanoma, 0.788 µM; in the test on NCI-H226 lung, 4.33 µM; in the test on NCI-H23 lung, 2.17 µM; in the test with NCI-H460 lung, 3.06 µM. For the same compound, the TGI came to 3.33 µM in the test on OVCAR-5 ovarian, 1.36 µM in the test with SNB-75 CNS, 1.89 µM with U251 CNS and 1.69 µM with UACC-62 melanoma.
As for `C1=CN2C[n+]3cccc(OCc4ccccc4)c3N=C2C(OCc2ccccc2)=C1`, the TGI in the test on HOP-62 NSCLC was > 100 µM; in the test with K-562 leukemia, 42.4 µM; with MALME-3M melanoma, 30.6 µM; with NCI-H226 lung, > 100 µM; in the test on NCI-H23 lung it was 39.9 µM; in the test on NCI-H460 lung it was > 100 µM. The TGI with OVCAR-5 ovarian is > 100 µM; in the test with SNB-75 CNS it was > 100 µM; in the test with U251 CNS, > 100 µM; in the test on UACC-62 melanoma it was 26.6 µM.
As for `COC(=O)[C@]12CC[C@@H](C)[C@H](C)[C@@H]1C1=CC[C@@H]3[C@@]4(C)CC(=O)[C@H](O)[C@@]5(C)COC(=C45)C[C@@]3(C)[C@]1(C)CC2`, the GI50 is 16.9 µM with HOP-62 NSCLC; 20.5 µM in the test on K-562 leukemia; 16.2 µM with MALME-3M melanoma; 17.7 µM with NCI-H226 lung; 17.5 µM in the test on NCI-H23 lung; 18.8 µM in the test on NCI-H460 lung. The GI50 in the test on OVCAR-5 ovarian was 18.4 µM; with SNB-75 CNS, 16 µM; in the test on U251 CNS it was 17.9 µM; in the test on UACC-62 melanoma, 15.7 µM. Also, the TGI with HOP-62 NSCLC came out at 31.1 µM; in the test on K-562 leukemia, 41.8 µM; in the test with MALME-3M melanoma, 30.7 µM; with NCI-H226 lung, 38.7 µM; with NCI-H23 lung it was 35.7 µM; with NCI-H460 lung, 37.5 µM. For the same compound, the total growth inhibition concentration (TGI) in the test on OVCAR-5 ovarian was determined as 37.7 µM; in the test on SNB-75 CNS, 33 µM; in the test on U251 CNS it was 31.9 µM; in the test on UACC-62 melanoma, 31.6 µM.
For the compound `Cc1c(NC(=O)C(=O)N=NC(=O)c2ccncc2)c(O)c2ccccc2c1O`, the TGI with HOP-62 NSCLC was 40.7 µM; with K-562 leukemia, > 82 µM; in the test on MALME-3M melanoma it was 16.4 µM; with NCI-H226 lung, 29.5 µM; in the test on NCI-H23 lung, 23.5 µM; with NCI-H460 lung, 16.8 µM. The TGI was determined as 30.8 µM in the test with OVCAR-5 ovarian, 36.2 µM in the test with SNB-75 CNS, 28.1 µM with U251 CNS and 6.07 µM in the test with UACC-62 melanoma.
For the compound `CCCCCCC(=O)C/C(CCC(=O)N(Cc1ccccc1)Cc1ccccc1)=N\Nc1ccc([N+](=O)[O-])cc1[N+](=O)[O-]`, the TGI with HOP-62 NSCLC is > 100 µM; in the test with K-562 leukemia, 58.2 µM; in the test with MALME-3M melanoma, > 100 µM; in the test with NCI-H226 lung, > 100 µM; in the test with NCI-H23 lung it was > 100 µM; in the test with NCI-H460 lung, > 100 µM. Moreover, the TGI in the test with OVCAR-5 ovarian, with SNB-75 CNS, in the test on U251 CNS and with UACC-62 melanoma was > 100 µM in each case.
For `N#C/C(=C\c1c(-c2ccccc2)[nH]c2ccccc12)C(=O)c1ccc(Cl)cc1`, the GI50 was 5.41 µM in the test on HOP-62 NSCLC; 0.336 µM in the test with K-562 leukemia; 3.61 µM in the test with MALME-3M melanoma; 7.5 µM with NCI-H226 lung; 3.71 µM in the test with NCI-H23 lung; 1.02 µM in the test with NCI-H460 lung. The GI50 with OVCAR-5 ovarian is 8.58 µM; with SNB-75 CNS, 1.43 µM; with U251 CNS, 1.11 µM; in the test with UACC-62 melanoma it was 1.46 µM. Also, the TGI came to 26 µM in the test on HOP-62 NSCLC; 5.32 µM with K-562 leukemia; 30.2 µM with MALME-3M melanoma; 47.2 µM in the test on NCI-H226 lung; 38.5 µM with NCI-H23 lung; 11.6 µM in the test on NCI-H460 lung. The TGI with OVCAR-5 ovarian stood at 46.9 µM; in the test on SNB-75 CNS, 8.7 µM; in the test with U251 CNS, 16.2 µM; in the test with UACC-62 melanoma, 33.9 µM.
